Data from US6866861B1, “Method and composition for enhancing milk component concentrations” (Land O'Lakes, Inc., priority 1999, dated 2005).

System: cows
Experiment: Abomasal infusion of sorbitol in cows, repeat trial with different cows (Example 3)
Type: in vivo, cow
Settings: for Fat / Lactose / Non-Protein Nitrogen / Total Solids / True Protein: 100 g/cow/day abomasal, 3 cows
Method: To determine the weight percent total solids, wet basis, in a sample, the actual weight of total solids is determined by analyzing the sample in accordance with Method #925.23 (33.2.09) of Official Methods of Analysis, Association of Official Analytical Chemists (AOAC) (16th Ed., 1995). The weight percent total solids, wet basis, is then calculated by dividing the actual weight of total solids by the actual weight of the sample. The weight percent of true protein, wet basis, for a particular sample is calculated after first determining the wet basis weight percent of total Kjeldahl nitrogen and the wet basis weight percent of non-protein nitrogen in the sample. The wet basis weight percent of total Kjeldahl nitrogen in the sample is determined using the method referenced above. The wet basis weight percent of non-protein nitrogen (NPN) in the sample is determined in accordance with Method #991.21 (33.2.12) of Official Methods of Analysis, Association of Official Analytical Chemists (AOAC) (16th Ed., 1995). The weight percent of true protein, wet basis, in the sample is then determined by subtracting the wet basis weight percent of non-protein nitrogen in the sample from the wet basis weight percent of total Kjeldahl nitrogen in the sample. To determine the weight percent lactose, wet basis, in a liquid sample, the weight of the liquid sample is first determined. The actual weight of lactose in the liquid sample may then be determined using analysis kit number 176-303, that is available from Boehringer-Mannheim of Indianapolis, Ind. in accordance with the procedural instructions included with analysis kit number 176-303. The weight percent lactose, wet basis, in the liquid sample is then calculated by dividing the actual weight of lactose in the liquid sample by the actual weight of the liquid sample. To determine the weight percent fat, wet basis, in a sample, the actual weight of fat in the sample is determined in accordance with Method #974.09 (33.7.18) of Official Methods of Analysis, Association of Official Analytical Chemists (AOAC) (16th Ed., 1995). The weight percent fat, wet basis, is then calculated by dividing the actual weight of fat in the sample by the actual weight of the sample. In this example, sorbitol was abomasally infused into three different cows at a rate of 100 grams of sorbitol per cow per day during a 14 day test period. The sorbitol rations were mixed with water to facilitate infusion. The rations provided to the cows during the period extending from day 0, prior to abomasal infusion of sorbitol, through day 14 of the test period were the same. The only difference in feeding of the cows between day 0 and days 1-14 of the test period were that during days 1-14 the cows were abomasally infused with the dosage of 100 grams of sorbitol per cow per day. Milk from the three cows was collected and analyzed prior to infusion (on day 0) and also was collected and analyzed on the third, seventh and fourteenth day of the test period. The results presented in Table 2 below for each milk component for each particular day are averages for the milk collected from the three different cows. The trial of Example 2 was repeated in Example 3 several months later using three different cows. All of the test conditions described above for Example 2 were repeated in Example 3, with the exception of use of different cows. The results of the second trial are listed in Table 3 below: The net change for the different milk components presented in Table 3 was calculated by averaging the results of days 3, 7 and 14 for a particular milk component and subtracting the results presented for day 0 for the particular milk component. The results of Table 3 illustrate that, on average, the abomasal infusion of sorbitol caused a net increase in the amount of fat and total solids in the milk of the test cattle. […]

[1] = milk, average of days 3, 7, 14 minus day 0

OC[C@@H](O)[C@@H](O)[C@H](O)[C@@H](O)CO [sorbitol]
amount of fat and total solids in the milk (conclusion in words) (abomasal infusion, 14 day test period, on average): net increase
Fat (milk, Day 3): 4.22 Wt %
Lactose (milk, Day 3): 4.80 Wt. %
Non-Protein Nitrogen (milk, Day 3): 0.23 Wt. %
Total Solids (milk, Day 3): 12.95 Wt. %
True Protein (milk, Day 3): 3.21 Wt. %
Fat (milk, Day 7): 3.53 Wt %
Lactose (milk, Day 7): 5.12 Wt. %
Non-Protein Nitrogen (milk, Day 7): 0.27 Wt. %
Total Solids (milk, Day 7): 12.26 Wt. %
True Protein (milk, Day 7): 2.89 Wt. %
Fat (milk, Day 14): 3.81 Wt %
Lactose (milk, Day 14): 5.80 Wt. %
Non-Protein Nitrogen (milk, Day 14): 0.23 Wt. %
Total Solids (milk, Day 14): 12.55 Wt. %
True Protein (milk, Day 14): 3.22 Wt. %
Fat, Net Change [1]: +0.38 Wt %
Lactose, Net Change [1]: +0.39 Wt. %
Non-Protein Nitrogen, Net Change [1]: no net change
Total Solids, Net Change [1]: +0.41 Wt. %
True Protein, Net Change [1]: −0.03 Wt. %
increase of true protein content if the results of day 7 were eliminated from the net change (milk, days 3 and 14 versus day 0): about 0.08 weight percent
